In the supplement of paper PMC10307832:

Legend:
Experiment in all cases: relative viability (nuclei count vs DMSO), 5 days (fraction); higher = more cells survive
A-427 = system: A-427
In short: (§1)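 Medians of duplicate plates are given as relative viability. That measure is the nuclei count in treated wells divided by the count in vehicle wells. Counts were taken on 4× images of lung cancer cell lines in 1536-well plates, 5 days after pin-tool dosing the day after seeding with one drug alone or a fixed anchor-drug dose plus five library-drug doses (not always all listed) in √10 steps.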

COR-L 105 = system: COR-L 105
In short: as §1

EKVX = system: EKVX
In short: as §1

EMC-BAC-2 = system: EMC-BAC-2
In short: as §1

EPLC-272H = system: EPLC-272H
In short: as §1

HARA = system: HARA
In short: as §1

HCC-44 = system: HCC-44
In short: as §1

LK-2 = system: LK-2
In short: as §1

LU99A = system: LU99A
In short: as §1

NCI-H1734 = system: NCI-H1734
In short: as §1

NCI-H1755 = system: NCI-H1755
In short: as §1

NCI-H1792 = system: NCI-H1792
In short: as §1

NCI-H1993 = system: NCI-H1993
In short: as §1

NCI-H2405 = system: NCI-H2405
In short: as §1

NCI-H358 = system: NCI-H358
In short: as §1

NCI-H460 = system: NCI-H460
In short: as §1

NCI-H596 = system: NCI-H596
In short: as §1

NCI-H647 = system: NCI-H647
In short: as §1

RERF-LC-KJ = system: RERF-LC-KJ
In short: as §1

## Cc1csc(=NC2CCCCC2)n1/N=C/c1ccc(O)c(O)c1O [MIM1] + Cc1nc(NC(=O)N2CCC[C@H]2C(N)=O)sc1-c1ccnc(C(C)(C)C(F)(F)F)c1 [Alpelisib] (partner 2 µM)
A-427; first compound 0.2 µM
  relative viability: 1.09
A-427; first compound 0.6325 µM
  relative viability: 1.06
A-427; first compound 2 µM
  relative viability: 1.15
A-427; first compound 6.325 µM
  relative viability: 1.06
A-427; first compound 20 µM
  relative viability: 0.335
COR-L 105; first compound 0.2 µM
  relative viability: 0.782
COR-L 105; first compound 0.6325 µM
  relative viability: 0.971
COR-L 105; first compound 2 µM
  relative viability: 0.849
COR-L 105; first compound 6.325 µM
  relative viability: 0.934
COR-L 105; first compound 20 µM
  relative viability: 0.966
EKVX; first compound 0.2 µM
  relative viability: 0.924
EKVX; first compound 0.6325 µM
  relative viability: 0.91
EKVX; first compound 2 µM
  relative viability: 0.934
EKVX; first compound 6.325 µM
  relative viability: 0.575
EKVX; first compound 20 µM
  relative viability: 0.615
EMC-BAC-2; first compound 0.2 µM
  relative viability: 0.718
EMC-BAC-2; first compound 0.6325 µM
  relative viability: 0.771
EMC-BAC-2; first compound 2 µM
  relative viability: 0.745
EMC-BAC-2; first compound 6.325 µM
  relative viability: 0.682
EMC-BAC-2; first compound 20 µM
  relative viability: 0.404
EPLC-272H; first compound 0.2 µM
  relative viability: 0.968
EPLC-272H; first compound 0.6325 µM
  relative viability: 0.769
EPLC-272H; first compound 2 µM
  relative viability: 0.973
EPLC-272H; first compound 6.325 µM
  relative viability: 0.958
EPLC-272H; first compound 20 µM
  relative viability: 0.294
HARA; first compound 0.2 µM
  relative viability: 0.887
HARA; first compound 0.6325 µM
  relative viability: 0.857
HARA; first compound 2 µM
  relative viability: 0.878
HARA; first compound 6.325 µM
  relative viability: 0.361
HARA; first compound 20 µM
  relative viability: 0.165
HCC-44; first compound 0.2 µM
  relative viability: 0.835
HCC-44; first compound 0.6325 µM
  relative viability: 0.838
HCC-44; first compound 2 µM
  relative viability: 0.577
HCC-44; first compound 6.325 µM
  relative viability: 0.498
HCC-44; first compound 20 µM
  relative viability: 0.137
LK-2; first compound 0.2 µM
  relative viability: 0.958
LK-2; first compound 0.6325 µM
  relative viability: 1.04
LK-2; first compound 6.325 µM
  relative viability: 0.963
LK-2; first compound 20 µM
  relative viability: 0.374
LU99A; first compound 0.2 µM
  relative viability: 0.488
LU99A; first compound 0.6325 µM
  relative viability: 0.495
LU99A; first compound 2 µM
  relative viability: 0.459
LU99A; first compound 6.325 µM
  relative viability: 0.487
LU99A; first compound 20 µM
  relative viability: 0.327
NCI-H1734; first compound 0.2 µM
  relative viability: 0.738
NCI-H1734; first compound 0.6325 µM
  relative viability: 0.655
NCI-H1734; first compound 2 µM
  relative viability: 0.696
NCI-H1734; first compound 6.325 µM
  relative viability: 0.655
NCI-H1734; first compound 20 µM
  relative viability: 0.38
NCI-H1755; first compound 0.2 µM
  relative viability: 0.93
NCI-H1755; first compound 0.6325 µM
  relative viability: 0.953
NCI-H1755; first compound 2 µM
  relative viability: 0.961
NCI-H1755; first compound 6.325 µM
  relative viability: 0.72
NCI-H1755; first compound 20 µM
  relative viability: 0.207
NCI-H1792; first compound 0.2 µM
  relative viability: 0.67
NCI-H1792; first compound 0.6325 µM
  relative viability: 0.654
NCI-H1792; first compound 2 µM
  relative viability: 0.694
NCI-H1792; first compound 6.325 µM
  relative viability: 0.433
NCI-H1792; first compound 20 µM
  relative viability: 0.599
NCI-H1993; first compound 0.2 µM
  relative viability: 0.715
NCI-H1993; first compound 0.6325 µM
  relative viability: 0.619
NCI-H1993; first compound 2 µM
  relative viability: 0.758
NCI-H1993; first compound 6.325 µM
  relative viability: 0.724
NCI-H1993; first compound 20 µM
  relative viability: 0.55
NCI-H2405; first compound 0.2 µM
  relative viability: 0.787
NCI-H2405; first compound 0.6325 µM
  relative viability: 0.85
NCI-H2405; first compound 2 µM
  relative viability: 0.739
NCI-H2405; first compound 6.325 µM
  relative viability: 0.76
NCI-H2405; first compound 20 µM
  relative viability: 0.644
NCI-H358; first compound 0.2 µM
  relative viability: 0.829
NCI-H358; first compound 0.6325 µM
  relative viability: 0.881
NCI-H358; first compound 2 µM
  relative viability: 0.721
NCI-H358; first compound 6.325 µM
  relative viability: 0.383
NCI-H358; first compound 20 µM
  relative viability: 0.274
NCI-H460; first compound 0.2 µM
  relative viability: 0.43
NCI-H460; first compound 0.6325 µM
  relative viability: 0.549
NCI-H460; first compound 2 µM
  relative viability: 0.456
NCI-H460; first compound 6.325 µM
  relative viability: 0.204
NCI-H460; first compound 20 µM
  relative viability: 0.0234
NCI-H596; first compound 0.2 µM
  relative viability: 0.491
NCI-H596; first compound 0.6325 µM
  relative viability: 0.501
NCI-H596; first compound 2 µM
  relative viability: 0.525
NCI-H596; first compound 6.325 µM
  relative viability: 0.497
NCI-H596; first compound 20 µM
  relative viability: 0.48
NCI-H647; first compound 0.2 µM
  relative viability: 1.23
NCI-H647; first compound 0.6325 µM
  relative viability: 1.14
NCI-H647; first compound 2 µM
  relative viability: 1.12
NCI-H647; first compound 6.325 µM
  relative viability: 0.991
NCI-H647; first compound 20 µM
  relative viability: 0.213
RERF-LC-KJ; first compound 0.2 µM
  relative viability: 0.802
RERF-LC-KJ; first compound 0.6325 µM
  relative viability: 0.801
RERF-LC-KJ; first compound 2 µM
  relative viability: 0.704
RERF-LC-KJ; first compound 6.325 µM
  relative viability: 0.668
RERF-LC-KJ; first compound 20 µM
  relative viability: 0.213

## CN1CCN(CCOc2cc(OC3CCOCC3)c3c(Nc4c(Cl)ccc5c4OCO5)ncnc3c2)CC1 [Saracatinib] + Cc1nc(NC(=O)N2CCC[C@H]2C(N)=O)sc1-c1ccnc(C(C)(C)C(F)(F)F)c1 [Alpelisib] (partner 2 µM)
A-427; first compound 0.02 µM
  relative viability: 1.09
A-427; first compound 0.2 µM
  relative viability: 0.916
A-427; first compound 0.6325 µM
  relative viability: 1.07
A-427; first compound 2 µM
  relative viability: 1.01
COR-L 105; first compound 0.02 µM
  relative viability: 0.91
COR-L 105; first compound 0.2 µM
  relative viability: 0.96
COR-L 105; first compound 0.6325 µM
  relative viability: 0.7
COR-L 105; first compound 2 µM
  relative viability: 0.416
EKVX; first compound 0.02 µM
  relative viability: 0.897
EKVX; first compound 0.2 µM
  relative viability: 0.551
EKVX; first compound 0.6325 µM
  relative viability: 0.671
EKVX; first compound 2 µM
  relative viability: 0.325
EMC-BAC-2; first compound 0.02 µM
  relative viability: 0.778
EMC-BAC-2; first compound 0.2 µM
  relative viability: 0.657
EMC-BAC-2; first compound 0.6325 µM
  relative viability: 0.697
EMC-BAC-2; first compound 2 µM
  relative viability: 0.578
EPLC-272H; first compound 0.02 µM
  relative viability: 1.03
EPLC-272H; first compound 0.2 µM
  relative viability: 0.732
EPLC-272H; first compound 0.6325 µM
  relative viability: 0.942
EPLC-272H; first compound 2 µM
  relative viability: 0.821
HARA; first compound 0.02 µM
  relative viability: 0.904
HARA; first compound 0.6325 µM
  relative viability: 0.707
HARA; first compound 2 µM
  relative viability: 0.513
HCC-44; first compound 0.02 µM
  relative viability: 0.859
HCC-44; first compound 0.2 µM
  relative viability: 0.658
HCC-44; first compound 0.6325 µM
  relative viability: 0.874
HCC-44; first compound 2 µM
  relative viability: 0.862
LK-2; first compound 0.02 µM
  relative viability: 0.956
LK-2; first compound 0.2 µM
  relative viability: 0.851
LK-2; first compound 0.6325 µM
  relative viability: 1.02
LK-2; first compound 2 µM
  relative viability: 0.531
LU99A; first compound 0.02 µM
  relative viability: 0.568
LU99A; first compound 0.2 µM
  relative viability: 0.371
LU99A; first compound 0.6325 µM
  relative viability: 0.513
LU99A; first compound 2 µM
  relative viability: 0.417
NCI-H1734; first compound 0.02 µM
  relative viability: 0.669
NCI-H1734; first compound 0.6325 µM
  relative viability: 0.646
NCI-H1734; first compound 2 µM
  relative viability: 0.507
NCI-H1755; first compound 0.02 µM
  relative viability: 0.928
NCI-H1755; first compound 0.2 µM
  relative viability: 0.709
NCI-H1755; first compound 0.6325 µM
  relative viability: 0.864
NCI-H1755; first compound 2 µM
  relative viability: 0.712
NCI-H1792; first compound 0.02 µM
  relative viability: 0.706
NCI-H1792; first compound 0.2 µM
  relative viability: 0.492
NCI-H1792; first compound 0.6325 µM
  relative viability: 0.929
NCI-H1792; first compound 2 µM
  relative viability: 0.608
NCI-H1993; first compound 0.02 µM
  relative viability: 0.68
NCI-H1993; first compound 0.2 µM
  relative viability: 0.531
NCI-H1993; first compound 2 µM
  relative viability: 0.656
NCI-H2405; first compound 0.02 µM
  relative viability: 0.796
NCI-H2405; first compound 0.2 µM
  relative viability: 0.821
NCI-H2405; first compound 0.6325 µM
  relative viability: 0.413
NCI-H2405; first compound 2 µM
  relative viability: 0.284
NCI-H358; first compound 0.02 µM
  relative viability: 0.839
NCI-H358; first compound 0.2 µM
  relative viability: 0.881
NCI-H358; first compound 0.6325 µM
  relative viability: 0.514
NCI-H358; first compound 2 µM
  relative viability: 0.448
NCI-H460; first compound 0.02 µM
  relative viability: 0.574
NCI-H460; first compound 0.2 µM
  relative viability: 0.347
NCI-H460; first compound 0.6325 µM
  relative viability: 0.289
NCI-H460; first compound 2 µM
  relative viability: 0.175
NCI-H596; first compound 0.02 µM
  relative viability: 0.459
NCI-H596; first compound 0.2 µM
  relative viability: 0.424
NCI-H596; first compound 0.6325 µM
  relative viability: 0.448
NCI-H596; first compound 2 µM
  relative viability: 0.403
NCI-H647; first compound 0.02 µM
  relative viability: 1.09
NCI-H647; first compound 0.2 µM
  relative viability: 0.83
NCI-H647; first compound 0.6325 µM
  relative viability: 0.635
NCI-H647; first compound 2 µM
  relative viability: 0.36
RERF-LC-KJ; first compound 0.02 µM
  relative viability: 0.894
RERF-LC-KJ; first compound 0.2 µM
  relative viability: 0.954
RERF-LC-KJ; first compound 0.6325 µM
  relative viability: 0.831
RERF-LC-KJ; first compound 2 µM
  relative viability: 0.662
